Values of other authors in paper PMC9540525 (Cancer, 2022).

Tested on: patient‐derived xenograft models
Conditions: cited from earlier work

## COc1ccc(-c2c(-c3ccc(C#N)c(F)c3)nc(N3CCC(N)CC3)n(C)c2=O)cc1F [CC‐90011]
  antiproliferative activity in patient-derived xenograft models: demonstrated antiproliferative activity
